From ChEMBL document CHEMBL3612049, “Design, synthesis and molecular docking of salicylic acid derivatives containing metronidazole as a new class of antimicrobial agents” (Bioorg Med Chem, 2015)
Values after ≈ are worked out from the molar mass of the structure shown.

Legend:
[1] = Cytotoxicity against human macrophages after 24 hrs by MTT assay; type: cell-based, Macrophage
[2] = test system: Staphylococcus aureus; assay: Antimicrobial activity against Staphylococcus aureus ATCC 6538 after 18 hrs by broth microdilution method; type: functional; conditions: ATCC 6538, 18 h
[3] = test system: Escherichia coli; assay: Antimicrobial activity against Escherichia coli ATCC 35218 after 18 hrs by broth microdilution method; type: functional; conditions: ATCC 35218, 18 h
[4] = Hemolytic activity in human erythrocytes assessed as hemoglobin release after 3 hrs by spectrophotometric analysis; type: ADME, cell-based, Erythrocyte; conditions: read-out: LC50
[5] = test system: Bacillus spizizenii; assay: Antimicrobial activity against Bacillus subtilis ATCC 6633 after 18 hrs by broth microdilution method; type: functional; conditions: ATCC 6633, 18 h
[6] = test system: Pseudomonas aeruginosa; assay: Antimicrobial activity against Pseudomonas aeruginosa ATCC 13525 after 18 hrs by broth microdilution method; type: functional; conditions: ATCC 13525, 18 h
[7] = Inhibition of Staphylococcus aureus TyrRS expressed in Escherichia coli BL21 using L-[ring-3,5-3H]-tyrosine preincubated for 10 mins by liquid scintillation counting

Structure (SMILES)	CC50 at 24 h [1] [µM]	MIC [2] [µg/mL]	MIC [3] [µg/mL]	HC50 at 3 h [4] [µM]	MIC [5] [µg/mL]	MIC [6] [µg/mL]	IC50 [7] [µM]
Cc1ncc([N+](=O)[O-])n1CCOC(=O)c1ccccc1OCc1ccccc1	231	12.5 (≈ 32.8 µM)	25 (≈ 65.6 µM)	> 10	12.5 (≈ 32.8 µM)	50 (≈ 131 µM)	5.6
Cc1ncc([N+](=O)[O-])n1CCOC(=O)c1ccccc1OCc1ccccc1F	155	12.5 (≈ 31.3 µM)	50 (≈ 125 µM)	> 10	25 (≈ 62.6 µM)	50 (≈ 125 µM)	6.7
Cc1ncc([N+](=O)[O-])n1CCOC(=O)c1ccccc1OCc1cccc(F)c1	124	12.5 (≈ 31.3 µM)	50 (≈ 125 µM)	> 10	25 (≈ 62.6 µM)	50 (≈ 125 µM)	6.3
Cc1ncc([N+](=O)[O-])n1CCOC(=O)c1ccccc1OCc1ccc(F)cc1	157	12.5 (≈ 31.3 µM)	25 (≈ 62.6 µM)	> 10	12.5 (≈ 31.3 µM)	25 (≈ 62.6 µM)	5.7
Cc1ncc([N+](=O)[O-])n1CCOC(=O)c1ccccc1OCc1ccccc1Cl	213	6.25 (≈ 15 µM)	6.25 (≈ 15 µM)	> 10	6.25 (≈ 15 µM)	12.5 (≈ 30.1 µM)	4.7
Cc1ncc([N+](=O)[O-])n1CCOC(=O)c1ccccc1OCc1cccc(Cl)c1	188	6.25 (≈ 15 µM)	12.5 (≈ 30.1 µM)	> 10	6.25 (≈ 15 µM)	12.5 (≈ 30.1 µM)	5
Cc1ncc([N+](=O)[O-])n1CCOC(=O)c1ccccc1OCc1ccc(Cl)cc1	168	6.25 (≈ 15 µM)	25 (≈ 60.1 µM)	> 10	12.5 (≈ 30.1 µM)	12.5 (≈ 30.1 µM)	4.8
Cc1ncc([N+](=O)[O-])n1CCOC(=O)c1ccccc1OCc1ccc(Br)cc1	198	6.25 (≈ 13.6 µM)	12.5 (≈ 27.2 µM)	> 10	6.25 (≈ 13.6 µM)	12.5 (≈ 27.2 µM)	4.9
Cc1ccc(COc2ccccc2C(=O)OCCn2c([N+](=O)[O-])cnc2C)cc1	140	3.13 (≈ 7.92 µM)	12.5 (≈ 31.6 µM)	> 10	3.13 (≈ 7.92 µM)	12.5 (≈ 31.6 µM)	4.7
Cc1cc(C)cc(COc2ccccc2C(=O)OCCn2c([N+](=O)[O-])cnc2C)c1	252	3.13 (≈ 7.64 µM)	6.25 (≈ 15.3 µM)	> 10	1.57 (≈ 3.83 µM)	12.5 (≈ 30.5 µM)	3
Cc1ncc([N+](=O)[O-])n1CCOC(=O)c1ccccc1OCc1ccc(C(C)C)cc1	272	3.13 (≈ 7.39 µM)	6.25 (≈ 14.8 µM)	> 10	3.13 (≈ 7.39 µM)	6.25 (≈ 14.8 µM)	3.3
COc1ccc(COc2ccccc2C(=O)OCCn2c([N+](=O)[O-])cnc2C)cc1	239	1.57 (≈ 3.82 µM)	6.25 (≈ 15.2 µM)	> 10	0.78 (≈ 1.9 µM)	6.25 (≈ 15.2 µM)	2.9
Cc1ncc([N+](=O)[O-])n1CCOC(=O)c1ccccc1OCc1ccccc1C(F)(F)F	233	100 (≈ 223 µM)	100 (≈ 223 µM)	> 10	50 (≈ 111 µM)	100 (≈ 223 µM)	7.8
Cc1ncc([N+](=O)[O-])n1CCOC(=O)c1ccccc1OCc1cccc(C(F)(F)F)c1	251	50 (≈ 111 µM)	100 (≈ 223 µM)	> 10	100 (≈ 223 µM)	100 (≈ 223 µM)	8.3
Cc1ncc([N+](=O)[O-])n1CCOC(=O)c1ccccc1OCc1ccc(C(F)(F)F)cc1	242	25 (≈ 55.6 µM)	50 (≈ 111 µM)	> 10	25 (≈ 55.6 µM)	50 (≈ 111 µM)	6.3
Cc1ncc([N+](=O)[O-])n1CCOC(=O)c1ccccc1OCc1c(F)cccc1F	277	25 (≈ 59.9 µM)	50 (≈ 120 µM)	> 10	25 (≈ 59.9 µM)	50 (≈ 120 µM)	6.9
Cc1ncc([N+](=O)[O-])n1CCOC(=O)c1ccccc1OCc1ccc(F)c(F)c1	256	25 (≈ 59.9 µM)	100 (≈ 240 µM)	> 10	50 (≈ 120 µM)	100 (≈ 240 µM)	6
Cc1ncc([N+](=O)[O-])n1CCOC(=O)c1ccccc1OCc1ccc(Cl)c(Cl)c1	188	0.39 (≈ 0.866 µM)	3.13 (≈ 6.95 µM)	> 10	0.78 (≈ 1.73 µM)	1.57 (≈ 3.49 µM)	2.3
Cc1ncc([N+](=O)[O-])n1CCOC(=O)c1ccccc1OCc1cc(Cl)ccc1Cl	193	1.57 (≈ 3.49 µM)	3.13 (≈ 6.95 µM)	> 10	0.78 (≈ 1.73 µM)	6.25 (≈ 13.9 µM)	2.7
Cc1ncc([N+](=O)[O-])n1CCOC(=O)c1ccccc1OCc1ccc(Cl)c(F)c1	180	3.13 (≈ 7.21 µM)	6.25 (≈ 14.4 µM)	> 10	3.13 (≈ 7.21 µM)	6.25 (≈ 14.4 µM)	3.2
Cc1ncc([N+](=O)[O-])n1CCOC(=O)c1ccccc1OCc1cccc(Cl)c1F	190	3.13 (≈ 7.21 µM)	12.5 (≈ 28.8 µM)	> 10	1.57 (≈ 3.62 µM)	6.25 (≈ 14.4 µM)	2.9
Cc1ncc([N+](=O)[O-])n1CCOC(=O)c1ccccc1OCc1cc(F)c(F)c(F)c1	267	25 (≈ 57.4 µM)	100 (≈ 230 µM)	> 10	25 (≈ 57.4 µM)	50 (≈ 115 µM)	6.7
Cc1ncc([N+](=O)[O-])n1CCOC(=O)c1ccccc1OCc1c(F)c(F)c(F)c(F)c1F	236	50 (≈ 106 µM)	100 (≈ 212 µM)	> 10	50 (≈ 106 µM)	100 (≈ 212 µM)	8
O=C(N[C@H](CO)[C@H](O)c1ccc([N+](=O)[O-])cc1)C(Cl)Cl [CHLORAMPHENICOL]	–	1.57 (≈ 4.86 µM)	6.25 (≈ 19.3 µM)	–	1.57 (≈ 4.86 µM)	0.78 (≈ 2.41 µM)	–
CC1(C)S[C@@H]2[C@H](NC(=O)Cc3ccccc3)C(=O)N2[C@H]1C(=O)O [PENICILLIN G]	–	0.78 (≈ 2.33 µM)	6.25 (≈ 18.7 µM)	–	0.78 (≈ 2.33 µM)	6.25 (≈ 18.7 µM)	–
